Patent publication US20110028566A1, “COMPOSITIONS AND PRODUCTS CONTAINING CYCLOALIPHATIC DIOL ANTIMICROBIAL AGENTS AND METHODS OF USING THE COMPOSITIONS AND PRODUCTS” (EASTMAN CHEMICAL COMPANY, priority 2009, published 2011)

Assays:
Assay in all cases: Microbial challenge testing in BPW
Format in all cases: cell-based
[1] = system: Bacillus subtilis
Method: (§1) The microorganisms used in challenge tests are given in Table 3, designated as either ATCC (American Type Culture Collection) or wild type. These wild type organisms were problematic organisms previously isolated from chemical products. In the description for each organism, the bacteria are indicated as either GN (Gram negative) or GP (Gram positive).
(§2) All of the microorganisms were grown in Tryptose Soy Broth (TSB), DIFCO™ available from Becton, Dickinson and Company, containing 1% dextrose. Aspergillus niger and Candida albicans were incubated at 22° C.±2° C. for at least 96 hours. All bacteria were incubated at 35° C.±2° C. in a humidified incubator for at least 96 hours.
(§3) The following procedure was followed to determine the amount of each challenge material (inoculum broth) required to produce a 10^8 cfu/mL challenge, which is equivalent to a final test-sample microbial concentration of 10^5 to 10^6 cfu (colony-forming units)/mL.
(§4) Using a sterile serological pipette, 1 mL of the growth from each TSB culture was transferred into tubes containing 9 mL phosphate buffer (pH 7.2) and mixed thoroughly. This process was repeated to make serial 1:10 dilutions. Then 0.1 mL of each sample and dilution was inoculated onto agar plates to produce the equivalent of a further 1:10 dilution. C. albicans and A. niger were inoculated onto SDA and bacteria were inoculated onto Plate Count Agar (PCA), DIFCO™ available from Becton, Dickinson and Company. The 0.1 mL aliquots were evenly distributed on the plates using the spread-plate technique. The spread-plate technique is performed by spreading the aliquot over the entire plate surface using a sterile spreading rod while rotating the plate with a rotary auto-plater. After the inoculum was absorbed completely, each plate was inverted and incubated (fungi at 22° C.±2° C. and bacteria at 35° C.±2° C.).
(§5) After incubation for at least 48 hours, colonies that had developed on the agar plates were counted and recorded with the corresponding dilution. If counting had to be delayed temporarily, plates were refrigerated, preferably no more than 24 hours, until they could be counted. The number of cfu/mL was determined by multiplying the count by the dilution factor for that particular plate.
(§6) Turbidity in Nepholemetric Turbidity Units (NTU) was measured for each serial dilution using the HF-Micro 100 Model Turbidimeter. For each microorganism, the plate counts were compared to the turbidity readings.
(§7) Control substrates (“broth alone”) were prepared for each microorganism separately in triplicate by adding 13.5 mL of BPW (pH 7.0) containing 1% (w/v) dextrose to each 20-mL glass tube; then adding 1.5 mL challenge material to produce a final concentration at time zero of 10^5 to 10^6 cfu/mL and a total volume of 15 mL.
(§8) Test sample substrates were prepared containing each test material (1,4-CHDM, etc) or combination of test materials at the concentrations shown in Tables 5 and 6. Sample substrates were prepared in triplicate, except those substrates containing PE or CG which were prepared in duplicate. Substrates were prepared by adding BPW containing 1% (w/v) dextrose to each 20-mL glass tube, then adding the test material in the amount appropriate to achieve the desired weight/volume percent (g/100 mL) and to obtain a total volume of BPW with dextrose and test material of 13.5 mL. Then 1.5 mL challenge material was added to produce a final concentration at time zero of 10^5 to 10^6 cfu/mL of the respective organism and a total test sample substrate volume of 15 mL.
(§9) After mixing, all challenged substrates were incubated at 35° C.±2° C. for 14 days and then at ambient room temperature.

[2] = system: Burkholderia cepacia
Method: as §1, §2, §3, §4, §5, §6, §7, §8, §9

[3] = system: Staphylococcus aureus
Method: as §1, §2, §3, §4, §5, §6, §7, §8, §9

[4] = system: Staphylococcus epidermidis
Method: as §1, §2, §3, §4, §5, §6, §7, §8, §9

[5] = system: Escherichia coli
Method: as §1, §2, §3, §4, §5, §6, §7, §8, §9

[6] = system: Aeromonas sp.; details: 0.05%
Method: as §1, §2, §3, §4, §5, §6, §7, §8, §9

For `O=c1[nH]sc2ccccc12` [BIT, 1,2-benzisothiazolin-3-one], the “Grade code B. subtilis” value ([1]; 0.05%, 3 days incubation) was 4 (1001 to 10,000 colonies (thus 10,000 cfu/mL to 100,000 cfu/mL)), the “Grade code B. subtilis” value ([1]; 0.05%, 14 days incubation) was 4 (1001 to 10,000 colonies (thus 10,000 cfu/mL to 100,000 cfu/mL)) and the “Grade code B. subtilis” value ([1]; 0.05%, 30 days incubation) was 4 (1001 to 10,000 colonies (thus 10,000 cfu/mL to 100,000 cfu/mL)). For the same compound, the “Grade code B. subtilis” value ([1]; 0.2%, 3 days incubation) was 4 (1001 to 10,000 colonies (thus 10,000 cfu/mL to 100,000 cfu/mL)), the “Grade code B. subtilis” value ([1]; 0.2%, 14 days incubation) was 4 (1001 to 10,000 colonies (thus 10,000 cfu/mL to 100,000 cfu/mL)) and the “Grade code B. subtilis” value ([1]; 0.2%, 30 days incubation) was 4 (1001 to 10,000 colonies (thus 10,000 cfu/mL to 100,000 cfu/mL)). The “Grade code B. cepacia” value ([2]; 0.05%, 3 days incubation) was 4 (1001 to 10,000 colonies (thus 10,000 cfu/mL to 100,000 cfu/mL)), the “Grade code B. cepacia” value ([2]; 0.05%, 14 days incubation) was 4 (1001 to 10,000 colonies (thus 10,000 cfu/mL to 100,000 cfu/mL)) and the “Grade code B. cepacia” value ([2]; 0.05%, 30 days incubation) was 4 (1001 to 10,000 colonies (thus 10,000 cfu/mL to 100,000 cfu/mL)). For the same compound, the “Grade code B. cepacia” value ([2]; 0.2%, 3 days incubation) was 3 (101 to 1000 colonies (thus 1000 to 10,000 cfu/mL)), the “Grade code B. cepacia” value ([2]; 0.2%, 14 days incubation) was 1 (1 to 51 colonies counted (thus 10 to 510 cfu/mL)) and the “Grade code B. cepacia” value ([2]; 0.2%, 30 days incubation) was 2 (52 to 100 colonies counted (thus 520 to 1000 cfu/mL)). For the same compound, the “Grade code S. aureus” value ([3]; 0.05%, 3 days incubation) was 4 (1001 to 10,000 colonies (thus 10,000 cfu/mL to 100,000 cfu/mL)), the “Grade code S. aureus” value ([3]; 0.05%, 14 days incubation) was 4 (1001 to 10,000 colonies (thus 10,000 cfu/mL to 100,000 cfu/mL)) and the “Grade code S. aureus” value ([3]; 0.05%, 30 days incubation) was 4 (1001 to 10,000 colonies (thus 10,000 cfu/mL to 100,000 cfu/mL)). For the same compound, the “Grade code S. aureus” value ([3]; 0.2%, 3 days incubation) was 4 (1001 to 10,000 colonies (thus 10,000 cfu/mL to 100,000 cfu/mL)), the “Grade code S. aureus” value ([3]; 0.2%, 14 days incubation) was 3 (101 to 1000 colonies (thus 1000 to 10,000 cfu/mL)) and the “Grade code S. aureus” value ([3]; 0.2%, 30 days incubation) was 3 (101 to 1000 colonies (thus 1000 to 10,000 cfu/mL)). For the same compound, the “Grade code S. epidermidis” value ([4]; 0.05%, 3 days incubation) was 4 (1001 to 10,000 colonies (thus 10,000 cfu/mL to 100,000 cfu/mL)), the “Grade code S. epidermidis” value ([4]; 0.05%, 13 days incubation) was 4 (1001 to 10,000 colonies (thus 10,000 cfu/mL to 100,000 cfu/mL)) and the “Grade code S. epidermidis” value ([4]; 0.05%, 30 days incubation) was 4 (1001 to 10,000 colonies (thus 10,000 cfu/mL to 100,000 cfu/mL)). For the same compound, the “Grade code S. epidermidis” value ([4]; 0.2%, 3 days incubation) was 4 (1001 to 10,000 colonies (thus 10,000 cfu/mL to 100,000 cfu/mL)), the “Grade code S. epidermidis” value ([4]; 0.2%, 13 days incubation) was 2 (52 to 100 colonies counted (thus 520 to 1000 cfu/mL)) and the “Grade code S. epidermidis” value ([4]; 0.2%, 30 days incubation) was 2 (52 to 100 colonies counted (thus 520 to 1000 cfu/mL)). For the same compound, the “Grade code E. coli” value ([5]; 0.05%, 3 days incubation) was 4 (1001 to 10,000 colonies (thus 10,000 cfu/mL to 100,000 cfu/mL)), the “Grade code E. coli” value ([5]; 0.05%, 14 days incubation) was 4 (1001 to 10,000 colonies (thus 10,000 cfu/mL to 100,000 cfu/mL)) and the “Grade code E. coli” value ([5]; 0.05%, 30 days incubation) was 4 (1001 to 10,000 colonies (thus 10,000 cfu/mL to 100,000 cfu/mL)). The “Grade code E. coli” value ([5]; 0.2%, 3 days incubation) was 1 (1 to 51 colonies counted (thus 10 to 510 cfu/mL)), the “Grade code E. coli” value ([5]; 0.2%, 14 days incubation) was 0 (No growth detected or <1 colony (thus <10 cfu/mL)) and the “Grade code E. coli” value ([5]; 0.2%, 30 days incubation) was 0 (No growth detected or <1 colony (thus <10 cfu/mL)). The “Grade code Aeromonas sp” value ([6]; 3 days incubation) was 5 (More than 10,000 colonies estimated (thus >100,000 cfu/mL)), the “Grade code Aeromonas sp” value ([6]; 14 days incubation) was 4 (1001 to 10,000 colonies (thus 10,000 cfu/mL to 100,000 cfu/mL)) and the “Grade code Aeromonas sp” value ([6]; 30 days incubation) was 4 (1001 to 10,000 colonies (thus 10,000 cfu/mL to 100,000 cfu/mL)).
